Assay results from article PMC8797470, “Disruption of the pentraxin 3/CD44 interaction as an efficient therapy for triple‐negative breast cancers” (Clinical and Translational Medicine, 2022).
Ends that are not written are not given here.

What was measured:
4T1-Luc2 cells = test: Transwell migration assay, luciferase read-out; type: cell-based, mouse; details: single peptide, with PTX3 treatment
Text: (§1) In migration assay, MDA‐MB‐231 cells seeded in 8.0 μm pore polycarbonate membrane inserts (BD Biosciences) in 24‐well plates. In Matrigel invasion assay, inserts were pre‐coated with an appropriate amount of Matrigel first, and the same number of cells seeded on the Matrigel. After cells adhered on the inserts, serum‐free DMEM medium added in the upper wells. Serum‐free medium containing the treatments of TGF‐β1, PTX3, PTX3NA, PTX3/N, PTX3/C, RI37, GI40, AD9, GR9, IgG1κ, PTX3 Ab‐10 or PTX3 Ab‐49 were then mixed into the lower wells of the 24‐well plates. After incubating for 18 h, cells outside the insert were removed by wiping. The inside the inserts were then stained by 4′,6‐diamidino‐2‐phenylindol (DAPI). Fluorescence microscope was used for counting the total number of migrated cells with 200× magnification. Different from the experimental design for the MDA‐MB‐231 cells, the migrated 4T1‐Luc2 cells in the inside of the insert were detected by luciferase activity.

CD44 [1] = target: T1, CD44 (Homo sapiens, UniProt P16070); test: Ligand binding ELISA on immobilised CD44; set-up: purchased Sino Biological Inc. 12211-H08H; details: wells coated with 10 μg/ml CD44, 2 h, OD 450 nm; for CD44 binding activity of peptides: biotinylated peptides, modified peptides compared with parental peptides; for binding to immobilised CD44: HRP-conjugated recombinant proteins
Method: Plate wells (9018; Corning Costar) were coated with 10 μg/ml of CD44 (12211‐H08H; Sino Biological Inc.) in PBS (pH 7.2) and then blocking for 1 h with the blocking buffer including 3% milk in PBS. For the stability binding experiments, the PTX3‐devired biotinylated peptides were pre‐incubated in serum for 1, 2, 4 or 6 h. For the binding experiments, the horseradish peroxidase (HRP)‐conjugated recombinant PTX3, PTX3/N, PTX3/C and PTX3NA or PTX3‐devired biotinylated peptides AD9, GR9, P2rdAD9 and P12rdGR9 (32310; LEADGENE) was responded in the well for 2 h. For the peptide of competition experiments, the PTX3‐devired biotinylated peptides RI37 and GI40 were diluted at the indicated concentration in PBS. After 2 h, PBS washed three times and then incubated with 5 μg/ml HRP‐conjugated PTX3 in PBS for 1 h at room temperature (RT). For the antibody competition experiments, Ab‐10 and Ab‐49 were incubated with 5 μg/ml HRP‐conjugated PTX3 in PBS for 2 h at RT. After incubation, the mixtures was responded in the well for 1 h at RT and then PBS washed three times, tetramethyl benzidine (TMB) was used to detect the bound HRP conjugate. After 15 min, the peroxidase reaction was stopped by adding 0.1 M H2SO4. Next, ELISA plate reader was used to detect the optical densities at 450 nm.
Target sequence in this assay (P16070 21-220 limits assumed): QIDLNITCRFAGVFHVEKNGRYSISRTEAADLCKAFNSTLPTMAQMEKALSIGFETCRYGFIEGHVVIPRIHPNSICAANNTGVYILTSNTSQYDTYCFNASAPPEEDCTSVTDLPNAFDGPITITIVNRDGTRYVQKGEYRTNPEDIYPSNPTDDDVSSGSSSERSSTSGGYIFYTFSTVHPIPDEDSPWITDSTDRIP

[2] = system: RANKL, MMP2, NANOG and TWIST2 transcription in MDA-MB-231 cells; test: Real-time quantitative PCR of PTX3-induced genes; type: cell-based, human; details: wortmannin 100 nM, BAY 11-7085 2 μM, PD98059 10 μM; pre-treated 1 h, then PTX3 24 h
Text: TRIsure RNA extraction reagent (Invitrogen) extracted total RNA. SuperScript™ III Reverse Transcriptase (Invitrogen) was used to synthesis cDNA. Next, SensiFAST™ SYBR (BIOLINE) was applied to perform real‐time quantitative PCR (Q‐PCR) assay. CFX connect Real‐Time PCR System (BIO‐RAD) executed real‐time fluorescence monitoring and the melting curve analysis according to the manufacturer's recommendations. The following pairs of specific primers—human CEBPD (F): 5′‐[…]‐3′ and CEBPD (R): 5′‐[…]‐3′, human PTX3 (F): 5′‐ […]‐3′ and PTX3 (R): 5′‐ […]‐3′, human MMP2 (F): 5′‐ […]‐3′ and MMP2 (R): 5′‐ […]‐3′, human RANKL (F): 5′‐ AGAGC GCAGATGGATCCTAA‐3′ and RANKL (R): 5′‐ TTCCTTTTGCACAGC TCCTT‐3′, human TWIST2 (F): 5′‐[…]‐3′ and TWIST2 (R): 5′‐[…]‐3′, human NANOG (F): 5′‐[…]‐3′ and NANOG (R): 5′‐ […]‐3′, human GAPDH (F): 5′‐ […]‐3′ and GAPDH (R): 5′‐ […]‐3′.

CD44 [3] = target: T1, CD44; test: Surface plasmon resonance (BIAcore) of N-terminal CD44 on immobilised full-length PTX3; type: binding; details: mean ± standard deviation
Text: The BIAcore 3000 system (GE Healthcare Co. Ltd.) was used to determine the direct protein interaction between the full‐length PTX3 (#1826‐TS; R&D Systems) and the N‐terminal of CD44 (#CD44‐3961H; Creative Biomart). Full‐length PTX3 was immobilised onto a CM5 sensor chip (GE Healthcare Co. Ltd.); the immobilisation level was 4000–6000 response units using amine‐coupling chemistry. Briefly, a mixture of 1‐Ethyl‐3‐(3‐dimethylaminopropyl) carbodiimide hydrochloride (EDC) and N‐hydroxysuccinimide activated the surface of the chip, and then diluted full‐length PTX3 (10 μg/ml in acetate buffer pH 3) was injected into the flow cells for immobilisation. Finally, the remaining activated groups were blocked by ethanolamine. The binding parameters of the experiment were measured over a 1‐min association phase and then followed by a 2‐min dissociation phase at a fluid flow rate of 10 μl/min. Phosphate‐buffered saline (PBS, pH 7.2) was used as the analyte running buffer; 0.05% sodium dodecyl sulphate was used to regenerate the chip surface before the next analyte concentration was applied. The 1:1 Langmuir binding model (BIAevaluation 4.1; GE Healthcare Co. Ltd.) were performed to calculate its corresponding association and dissociation rate constants to determine the affinity.
Target sequence in this assay (P16070 32-120 limits assumed): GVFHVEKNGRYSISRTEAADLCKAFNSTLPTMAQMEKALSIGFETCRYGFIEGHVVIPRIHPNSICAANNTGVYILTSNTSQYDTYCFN

MDA-MB-231 cells [4] = test: Sphere formation assay; type: cell-based, human; details: MDA-MB-231 cells treated with the recombinant protein
Method: Note that 5 × 10^3 MDA‐MB‐231 cells were seeded in ultralow attachment plates (Corning) per well. Then, cultured in conditional medium containing the treatment of TGF‐β1, PTX3, PTX3NA, RI37, GI40, IgG1κ, PTX3 Ab‐10 or PTX3 Ab‐49 and the DMEM/F12 (Gibco) added with B27 (Invitrogen), 10 ng/ml bFGF (Peprotech) and 20 ng/ml EGF (Abcam). Number of spheres was calculated by microscope after 2 weeks.

MDA-MB-231 cells [5] = test: Transwell migration and Matrigel invasion assays; type: cell-based, human; details: treatment in lower well, 18 h
Text: as §1

PTX3 = details: read-out: KD for PTX3 binding; cited from earlier work
Text: However, knockdown of CD44 enhanced both JNK and p38 activity, implying that blockade of the PTX3/CD44 interaction positively compensates for JNK and p38 activity.

[6] = BIAcore 3000, full-length PTX3 amine-coupled to CM5 chip, N-terminal CD44 as analyte, PBS pH 7.2, 1:1 Langmuir model

GR9: peptide, PTX3 amino acids 352–360 (GGAESCHIR; also: biotin, position not given here)
PTX3-induced migration of 4T1-Luc2 cells (4T1-Luc2 cells): efficiently inhibited | CD44 binding activity of peptides (CD44 [1]): significantly high binding activity

COc1cccc(-c2cc(=O)c3ccccc3o2)c1N [PD98059]
PTX3-induced RANKL, TWIST2, MMP2 and NANOG transcription with pathway inhibitors [2]: significantly hampered

COC[C@H]1OC(=O)c2coc3c2[C@@]1(C)C1=C(C3=O)[C@@H]2CCC(=O)[C@@]2(C)C[C@H]1OC(C)=O [wortmannin]
PTX3-induced RANKL, TWIST2, MMP2 and NANOG transcription with pathway inhibitors [2]: significantly hampered

AD9: peptide, PTX3 amino acids 209–217 (ACIWVKATD; also: biotin, position not given here)
PTX3-induced migration of 4T1-Luc2 cells (4T1-Luc2 cells): efficiently inhibited | CD44 binding activity of peptides (CD44 [1]): significantly high binding activity

CC(C)(C)c1ccc(S(=O)(=O)/C=C/C#N)cc1 [BAY 11‐7085]
PTX3-induced RANKL, TWIST2, MMP2 and NANOG transcription with pathway inhibitors [2]: significantly hampered

pentraxin 3 [PTX3]
association rate constant, K on (CD44 [3]; [6]): 1.30 ± 0.32 × 10^2 M^–1 s^–1 | dissociation rate constant, K off (CD44 [3]; [6]): 2.43 ± 2.35 × 10^–6 s^–1 | Kd (CD44 [3]; N-terminal CD44 and full-length PTX3 binding, calculated from the rate constants, read-out: equilibrium dissociation constant, K D): 0.021 ± 0.012 µM | sphere formation, protein alone (MDA-MB-231 cells [4]): promoted | migration and invasion, protein alone (MDA-MB-231 cells [5]): enhanced | binding to immobilised CD44 (CD44 [1]): could bind

PTX3/N: recombinant truncated mutant, N‐terminus of PTX3, amino acids 19–182
binding to immobilised CD44 (CD44 [1]): not

TSG‐6: secretory protein, CEBPD‐responsive gene product that interacts with PTX3
Kd (PTX3): 0.314 to 0.648 µM
